One assay deals with Vasopressin V1a receptor (Homo sapiens, UniProt P37288).
In assay [1] the target is Gamma-aminobutyric acid receptor subunit alpha-1 (Rattus norvegicus, UniProt P62813). Type of assay: functional.
In assay [2] the target is T1, D(1A) dopamine receptor (Homo sapiens, UniProt P21728). The assay is classed as functional, cell-based.
Assay [3] concerns the target T2, Alpha-2B adrenergic receptor (Homo sapiens, UniProt P18089).
T2 sequence (P18089 whole entry): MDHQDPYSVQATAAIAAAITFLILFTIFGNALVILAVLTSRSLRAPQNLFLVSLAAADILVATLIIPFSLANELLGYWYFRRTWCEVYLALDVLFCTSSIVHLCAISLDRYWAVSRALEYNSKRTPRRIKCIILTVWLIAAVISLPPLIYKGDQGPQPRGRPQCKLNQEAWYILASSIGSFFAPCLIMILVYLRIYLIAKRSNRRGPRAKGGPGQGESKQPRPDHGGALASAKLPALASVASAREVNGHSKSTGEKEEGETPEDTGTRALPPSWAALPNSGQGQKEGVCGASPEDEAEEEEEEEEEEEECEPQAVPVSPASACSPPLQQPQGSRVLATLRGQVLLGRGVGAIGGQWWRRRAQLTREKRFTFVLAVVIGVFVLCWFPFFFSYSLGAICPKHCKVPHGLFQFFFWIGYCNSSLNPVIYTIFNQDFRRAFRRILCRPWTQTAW

The target of the next assay is Melanocortin receptor 4 (Homo sapiens, UniProt P32245).
Assay [4] concerns the target Sodium-dependent noradrenaline transporter (Homo sapiens, UniProt P23975).
For assay [5], the target named is T1, D(1A) dopamine receptor.
Assay [6] concerns the target 3',5'-cyclic-AMP phosphodiesterase 4A (Homo sapiens, UniProt P27815). The assay is classed as functional.
The target of the next assay is T3, Progesterone receptor (Homo sapiens, UniProt P06401).
T3 sequence (P06401 whole entry): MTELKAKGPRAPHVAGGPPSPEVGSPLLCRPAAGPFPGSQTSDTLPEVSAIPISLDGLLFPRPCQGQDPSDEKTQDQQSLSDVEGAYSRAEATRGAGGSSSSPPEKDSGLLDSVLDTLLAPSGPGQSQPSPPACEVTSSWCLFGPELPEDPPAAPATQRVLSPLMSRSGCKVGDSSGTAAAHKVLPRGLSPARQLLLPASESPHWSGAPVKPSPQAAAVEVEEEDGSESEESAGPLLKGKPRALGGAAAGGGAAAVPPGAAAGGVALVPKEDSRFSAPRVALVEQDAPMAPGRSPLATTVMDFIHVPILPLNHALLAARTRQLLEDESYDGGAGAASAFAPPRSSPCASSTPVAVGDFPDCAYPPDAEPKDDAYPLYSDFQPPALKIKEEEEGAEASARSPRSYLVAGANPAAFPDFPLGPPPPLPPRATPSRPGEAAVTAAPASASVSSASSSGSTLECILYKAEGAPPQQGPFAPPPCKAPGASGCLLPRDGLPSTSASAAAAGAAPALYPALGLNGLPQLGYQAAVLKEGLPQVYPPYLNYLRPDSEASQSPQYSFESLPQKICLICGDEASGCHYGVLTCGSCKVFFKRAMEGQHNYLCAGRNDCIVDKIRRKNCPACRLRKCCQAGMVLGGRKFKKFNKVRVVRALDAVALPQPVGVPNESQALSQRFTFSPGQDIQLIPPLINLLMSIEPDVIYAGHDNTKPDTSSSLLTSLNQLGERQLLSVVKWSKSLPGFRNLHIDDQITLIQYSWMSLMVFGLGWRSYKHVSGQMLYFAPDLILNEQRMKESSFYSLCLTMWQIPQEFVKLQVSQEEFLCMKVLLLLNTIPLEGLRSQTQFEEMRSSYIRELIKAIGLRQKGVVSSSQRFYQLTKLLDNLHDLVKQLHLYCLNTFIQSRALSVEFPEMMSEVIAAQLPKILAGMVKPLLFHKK

Bounds are passed on as bounds.
Further: assay procedure not described here.

Sodium-dependent noradrenaline transporter, sequence (P23975 whole entry): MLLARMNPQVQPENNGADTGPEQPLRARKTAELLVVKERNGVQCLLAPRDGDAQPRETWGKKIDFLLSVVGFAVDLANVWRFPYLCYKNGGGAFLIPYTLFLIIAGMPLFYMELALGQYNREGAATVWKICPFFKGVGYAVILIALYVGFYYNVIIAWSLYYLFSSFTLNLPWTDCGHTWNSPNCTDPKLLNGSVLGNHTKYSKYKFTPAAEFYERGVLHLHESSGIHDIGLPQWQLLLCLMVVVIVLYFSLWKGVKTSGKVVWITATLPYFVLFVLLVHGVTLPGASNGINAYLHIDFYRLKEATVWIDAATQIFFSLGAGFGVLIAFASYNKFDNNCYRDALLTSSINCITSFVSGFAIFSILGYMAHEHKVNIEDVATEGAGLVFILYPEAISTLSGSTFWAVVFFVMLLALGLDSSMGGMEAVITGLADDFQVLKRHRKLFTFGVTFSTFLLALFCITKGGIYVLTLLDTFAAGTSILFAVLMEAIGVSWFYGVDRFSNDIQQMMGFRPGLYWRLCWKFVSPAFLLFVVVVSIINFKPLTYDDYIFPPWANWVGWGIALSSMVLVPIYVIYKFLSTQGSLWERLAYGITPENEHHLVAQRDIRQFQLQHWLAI
3',5'-cyclic-AMP phosphodiesterase 4A, sequence (P27815 whole entry): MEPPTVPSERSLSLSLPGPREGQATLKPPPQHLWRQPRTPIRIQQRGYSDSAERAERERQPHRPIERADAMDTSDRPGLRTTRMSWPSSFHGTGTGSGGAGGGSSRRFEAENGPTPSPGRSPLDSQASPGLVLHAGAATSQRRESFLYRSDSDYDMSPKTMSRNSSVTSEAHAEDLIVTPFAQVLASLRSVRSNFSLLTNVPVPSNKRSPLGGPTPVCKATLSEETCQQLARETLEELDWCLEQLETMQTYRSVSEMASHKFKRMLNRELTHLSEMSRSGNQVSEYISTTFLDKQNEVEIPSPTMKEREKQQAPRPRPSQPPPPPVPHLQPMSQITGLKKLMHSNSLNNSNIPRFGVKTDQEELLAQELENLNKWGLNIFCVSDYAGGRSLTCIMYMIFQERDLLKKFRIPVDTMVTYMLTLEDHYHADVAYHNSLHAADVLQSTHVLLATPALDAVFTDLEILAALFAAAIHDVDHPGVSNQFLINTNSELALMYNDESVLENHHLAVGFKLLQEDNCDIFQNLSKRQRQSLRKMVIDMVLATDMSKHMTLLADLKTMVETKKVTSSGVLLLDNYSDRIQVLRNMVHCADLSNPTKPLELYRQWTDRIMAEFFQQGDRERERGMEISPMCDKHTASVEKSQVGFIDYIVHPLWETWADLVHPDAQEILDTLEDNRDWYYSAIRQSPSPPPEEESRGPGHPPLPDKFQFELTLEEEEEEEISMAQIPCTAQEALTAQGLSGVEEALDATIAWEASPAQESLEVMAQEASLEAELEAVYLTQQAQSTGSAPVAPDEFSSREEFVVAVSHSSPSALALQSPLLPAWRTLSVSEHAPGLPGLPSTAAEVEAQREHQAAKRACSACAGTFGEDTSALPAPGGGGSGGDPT
Gamma-aminobutyric acid receptor subunit alpha-1, sequence (P62813 whole entry): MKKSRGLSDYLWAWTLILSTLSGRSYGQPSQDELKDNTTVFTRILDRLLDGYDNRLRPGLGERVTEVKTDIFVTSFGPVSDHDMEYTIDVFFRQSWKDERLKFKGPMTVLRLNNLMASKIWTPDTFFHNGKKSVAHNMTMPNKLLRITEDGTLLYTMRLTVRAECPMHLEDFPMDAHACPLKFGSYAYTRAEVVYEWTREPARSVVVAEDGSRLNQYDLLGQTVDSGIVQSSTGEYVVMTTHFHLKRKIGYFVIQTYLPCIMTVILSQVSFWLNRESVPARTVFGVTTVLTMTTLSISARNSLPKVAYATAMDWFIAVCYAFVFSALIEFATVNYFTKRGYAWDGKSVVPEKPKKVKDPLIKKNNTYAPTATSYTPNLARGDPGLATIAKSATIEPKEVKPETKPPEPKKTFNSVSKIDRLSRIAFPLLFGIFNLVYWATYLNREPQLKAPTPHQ
Melanocortin receptor 4, sequence (P32245 whole entry): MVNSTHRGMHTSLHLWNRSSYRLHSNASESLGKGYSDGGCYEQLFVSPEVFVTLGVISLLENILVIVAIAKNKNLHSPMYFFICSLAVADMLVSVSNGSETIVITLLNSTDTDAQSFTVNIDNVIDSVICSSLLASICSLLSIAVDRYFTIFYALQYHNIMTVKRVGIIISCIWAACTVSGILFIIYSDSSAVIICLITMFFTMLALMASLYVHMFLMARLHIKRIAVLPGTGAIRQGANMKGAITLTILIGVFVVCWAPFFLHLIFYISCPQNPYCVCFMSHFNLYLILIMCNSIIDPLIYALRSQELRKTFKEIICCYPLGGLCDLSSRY
Vasopressin V1a receptor, sequence (P37288 whole entry): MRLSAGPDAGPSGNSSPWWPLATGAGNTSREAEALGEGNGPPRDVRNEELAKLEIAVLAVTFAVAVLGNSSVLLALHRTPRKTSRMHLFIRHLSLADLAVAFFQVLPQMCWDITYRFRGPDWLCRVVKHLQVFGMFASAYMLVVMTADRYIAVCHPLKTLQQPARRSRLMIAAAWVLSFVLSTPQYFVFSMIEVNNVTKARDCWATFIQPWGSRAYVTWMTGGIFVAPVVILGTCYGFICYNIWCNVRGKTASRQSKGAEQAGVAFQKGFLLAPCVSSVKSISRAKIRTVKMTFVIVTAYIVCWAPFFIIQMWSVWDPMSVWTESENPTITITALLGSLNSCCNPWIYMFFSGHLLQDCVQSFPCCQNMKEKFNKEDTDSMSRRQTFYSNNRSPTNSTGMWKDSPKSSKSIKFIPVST
T1 sequence (P21728 whole entry): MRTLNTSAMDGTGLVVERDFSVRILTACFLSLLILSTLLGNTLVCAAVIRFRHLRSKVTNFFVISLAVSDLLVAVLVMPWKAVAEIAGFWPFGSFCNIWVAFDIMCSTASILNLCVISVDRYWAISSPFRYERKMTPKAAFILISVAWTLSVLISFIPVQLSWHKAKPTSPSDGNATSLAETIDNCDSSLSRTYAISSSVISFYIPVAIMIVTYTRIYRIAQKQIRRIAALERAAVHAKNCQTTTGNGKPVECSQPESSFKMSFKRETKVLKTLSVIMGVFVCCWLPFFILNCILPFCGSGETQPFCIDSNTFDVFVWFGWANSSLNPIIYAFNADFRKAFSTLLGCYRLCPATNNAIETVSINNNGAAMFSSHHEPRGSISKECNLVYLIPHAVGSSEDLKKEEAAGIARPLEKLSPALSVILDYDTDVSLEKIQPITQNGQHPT

For `CC(=O)N[C@@H](CS)C(=O)O` [ACETYLCYSTEINE], the AC50 on Vasopressin V1a receptor was above 30 µM; in assay [1] it was above 30 µM; at D(1A) dopamine receptor [2], above 30 µM; in [3] it was above 10 µM.

For `CC(C)COCC(CN(Cc1ccccc1)c1ccccc1)N1CCCC1` (stereo not drawn) [BEPRIDIL], the AC50 on Vasopressin V1a receptor was above 30 µM; on Melanocortin receptor 4 it was 15.4 µM; on D(1A) dopamine receptor [2], above 30 µM; in assay [3], 6.2 µM.

Regarding `C/N=C(\NC)NCc1ccccc1` [BETHANIDINE], the AC50 (at Vasopressin V1a receptor; in [1]; at D(1A) dopamine receptor [2]; in assay [3]) was above 30 µM in each case.

For `CCC(C)C1(CC)C(=O)NC(=O)NC1=O` (stereo not drawn) [BUTABARBITAL], the AC50 on Vasopressin V1a receptor and on D(1A) dopamine receptor [2] was above 30 µM throughout.

Regarding `COCC1=C(C(=O)O)N2C(=O)[C@@H](NC(=O)/C(=N\OC)c3csc(N)n3)[C@H]2SC1` [CEFPODOXIME], the AC50 (at Vasopressin V1a receptor; in assay [1]; at D(1A) dopamine receptor [2]; in assay [3]) was above 30 µM each time.

`CC(=O)O[C@]1(C(C)=O)CC[C@H]2[C@@H]3C=C(Cl)C4=CC(=O)CC[C@]4(C)[C@H]3CC[C@@]21C` [CHLORMADINONE ACETATE]: the AC50 in assay [4] was above 30 µM; at D(1A) dopamine receptor [5], above 30 µM; in assay [6], above 30 µM; on Progesterone receptor, 0.003 µM.

In the case of `O=C(O)c1cn(C2CC2)c2cc(N3CCNCC3)c(F)cc2c1=O` [CIPROFLOXACIN], the AC50 was above 10 µM on Vasopressin V1a receptor, above 30 µM at Melanocortin receptor 4, above 30 µM in assay [6] and above 30 µM at Progesterone receptor.

As for `COc1cc(N)c(Cl)cc1C(=O)NC1CCN(Cc2ccccc2)CC1` [CLEBOPRIDE], the AC50 on Vasopressin V1a receptor was above 30 µM; in assay [1], 0.13 µM; in assay [3], 18 µM.

In the case of `Cc1ccccc1N1CCN(CCc2nnc3n2CCCC3)CC1` [DAPIPRAZOLE], the AC50 (in assay [4]; at D(1A) dopamine receptor [5]; in [6]; at Progesterone receptor) was above 30 µM in each case.

Regarding `C=C1CC[C@H](O)C/C1=C/C=C1\CCC[C@]2(C)[C@@H]([C@H](C)/C=C/[C@H](C)C(C)C)CC[C@@H]12` [ERGOCALCIFEROL], the AC50 (in assay [4]; on D(1A) dopamine receptor [5]; in [6]; on Progesterone receptor) was above 30 µM throughout.

With `C[C@]12CCC(=O)C(O)=C1CC[C@@H]1[C@@H]2CC[C@]2(C)C(=O)CC[C@@H]12` [FORMESTANE], the AC50 (at Vasopressin V1a receptor; in [1]; on D(1A) dopamine receptor [2]; in [3]) was above 30 µM each time.

`C[C@]12CC[C@@H]3c4ccc(O)cc4C[C@@H](CCCCCCCCC[S+]([O-])CCCC(F)(F)C(F)(F)F)[C@H]3[C@@H]1CC[C@@H]2O` (stereo partly drawn) [FULVESTRANT]: the concentration at half-maximal activity (AC50) (on Vasopressin V1a receptor; in [1]; at D(1A) dopamine receptor [2]; in [3]) was above 30 µM throughout.

With `CC(C)NCC(O)c1ccc(O)c(O)c1` (stereo not drawn) [ISOPROTERENOL], the AC50 is above 10 µM at Vasopressin V1a receptor, above 30 µM at Melanocortin receptor 4, above 10 µM in assay [1] and above 30 µM at D(1A) dopamine receptor [2].

As for `Oc1ccc2c(c1)CC[C@H](c1ccccc1)[C@@H]2c1ccc(OCCN2CCCC2)cc1` [LASOFOXIFENE], the AC50 at Vasopressin V1a receptor was above 30 µM; in assay [1], above 30 µM; at D(1A) dopamine receptor [2], above 30 µM; in assay [3], 8.2 µM.

With `CC(C)(C)NC[C@H](O)COc1cccc2c1CCCC2=O` [LEVOBUNOLOL], the AC50 (in assay [4]; on D(1A) dopamine receptor [5]; in assay [6]; at Progesterone receptor) was above 30 µM each time.

`CN1CCN(C2=Nc3ccccc3Oc3ccc(Cl)cc32)CC1` [LOXAPINE]: the AC50 in assay [4] was 0.482 µM; at Vasopressin V1a receptor, above 10 µM; at D(1A) dopamine receptor [5] it was 0.0245 µM; at Melanocortin receptor 4 it was above 30 µM; in assay [6] it was above 30 µM; at Progesterone receptor it was above 30 µM. The AC50 (in [1]; on D(1A) dopamine receptor [2]) was above 10 µM in each case.

As for `CC(C(=O)O)c1ccc(CC2CCCC2=O)cc1` (stereo not drawn) [LOXOPROFEN], the concentration at half-maximal activity (AC50) (in assay [1]; at D(1A) dopamine receptor [2]) was above 30 µM throughout.

For the compound `Cc1c(N(C)CS(=O)(=O)O)c(=O)n(-c2ccccc2)n1C` [METAMIZOLE], the AC50 (in assay [4]; on D(1A) dopamine receptor [5]; in [6]; at Progesterone receptor) was above 30 µM throughout.

For the compound `COC(=O)c1ccc(O)cc1` [METHYLPARABEN], the AC50 (in assay [4]; on D(1A) dopamine receptor [5]; in [6]; on Progesterone receptor) was above 30 µM throughout.

Turning to `CN(C)CCCNc1c2ccccc2nc2cccc([N+](=O)[O-])c12` [NITRACRINE], the AC50 is above 30 µM on Vasopressin V1a receptor, 18 µM in [1] and 22 µM in assay [3].

Take `O=[N+]([O-])c1ccc(O)c2ncccc12` [NITROXOLINE]: the AC50 (in [4]; at D(1A) dopamine receptor [5]; in assay [6]; on Progesterone receptor; in assay [1]; on D(1A) dopamine receptor [2]) was above 30 µM throughout. The compound further returned an AC50 in [3] of 8.8 µM.

As to `C#C[C@]1(OC(C)=O)CC[C@H]2[C@@H]3CCC4=C/C(=N/O)CC[C@@H]4[C@H]3CC[C@@]21CC` [NORGESTIMATE], the AC50 (at Vasopressin V1a receptor; in assay [1]; on D(1A) dopamine receptor [2]; in [3]) was above 30 µM in each case.

As to `Clc1ccc2c(N3CCN(CCCN4CCN(c5ccnc6cc(Cl)ccc56)CC4)CC3)ccnc2c1` [PIPERAQUINE], the half-maximal activity concentration (AC50) (on Vasopressin V1a receptor; in assay [1]; on D(1A) dopamine receptor [2]; in [3]) was above 30 µM in each case.

For `COc1ccc(CN(CCN(C)C)c2ccccn2)cc1` [PYRILAMINE], the AC50 was above 30 µM in [4], 24.2 µM at D(1A) dopamine receptor [5], above 30 µM in assay [6] and above 30 µM at Progesterone receptor.

Consider `CC1(C)S[C@@H]2[C@H](NC(=O)[C@H](N)c3ccccc3)C(=O)N2[C@H]1C(=O)OCOC(=O)[C@@H]1N2C(=O)C[C@H]2S(=O)(=O)C1(C)C` [SULTAMICILLIN], for which the AC50 (on Vasopressin V1a receptor; in [1]; at D(1A) dopamine receptor [2]; in assay [3]) was above 30 µM in each case.

`Cc1cccc(N2CC(CO)OC2=O)c1` (stereo not drawn) [TOLOXATONE]: the AC50 (on Vasopressin V1a receptor; in assay [1]; at D(1A) dopamine receptor [2]; in assay [3]) was above 30 µM throughout.

For `CCC(C)C(CC)C(N)=O` (stereo not drawn) [VALNOCTAMIDE], the AC50 (at Vasopressin V1a receptor; in [1]; on D(1A) dopamine receptor [2]; in [3]) was above 30 µM each time.

Regarding `CCOC(=O)C1=C[C@]2(CC)CCCN3CCc4c(n1c1ccccc41)[C@@H]32` [VINPOCETINE], the AC50 is above 30 µM on Vasopressin V1a receptor, above 30 µM in [1], above 30 µM at D(1A) dopamine receptor [2] and 2.4 µM in [3].

Usually AC50 stands for the midpoint of the concentration-response curve, whichever way the signal moves. Read a high AC50 as activity only at high concentration.

The values above are taken from ChEMBL document CHEMBL5291721, “A preclinical secondary pharmacology resource illuminates target-adverse drug reaction associations of marketed drugs” (Nat Commun, 2023).
